Test results from ChEMBL document CHEMBL3734756, “Novel -carbolinequinazolinone hybrid as an inhibitor of Leishmania donovani trypanothione reductase: Synthesis, molecular docking and bioevaluation” (Medchemcomm, 2015).
Active and inactive are the calls of the source. The rule behind the calls is not given here.

Key:
[1] = target: Trypanothione reductase (Leishmania donovani, UniProt P39050); assay: Competitive inhibition of recombinant Leishmania donovani trypanothione reductase expressed in Escherichia coli BL21 (DE3) by Dixon plot analysis in presence of trypanothione disulphide
Trypanothione reductase, sequence (P39050 whole entry): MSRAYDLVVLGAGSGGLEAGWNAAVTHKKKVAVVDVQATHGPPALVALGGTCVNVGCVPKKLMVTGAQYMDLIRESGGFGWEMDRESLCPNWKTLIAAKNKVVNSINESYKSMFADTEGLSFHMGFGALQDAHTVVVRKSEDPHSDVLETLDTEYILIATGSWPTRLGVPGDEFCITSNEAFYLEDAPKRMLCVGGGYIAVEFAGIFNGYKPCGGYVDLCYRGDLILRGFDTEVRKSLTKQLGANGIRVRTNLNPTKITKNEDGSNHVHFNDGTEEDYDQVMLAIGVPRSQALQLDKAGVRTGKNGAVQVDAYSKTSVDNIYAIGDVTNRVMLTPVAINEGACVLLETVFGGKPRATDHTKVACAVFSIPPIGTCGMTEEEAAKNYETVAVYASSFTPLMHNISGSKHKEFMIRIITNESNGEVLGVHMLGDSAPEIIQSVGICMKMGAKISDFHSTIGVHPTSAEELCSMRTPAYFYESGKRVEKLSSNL

[2] = target: Trypanothione reductase (Leishmania donovani) (UniProt P39050); assay: Inhibition of recombinant Leishmania donovani trypanothione reductase expressed in Escherichia coli BL21 (DE3) using trypanothione disulphide as substrate at 50 uM preincubated for 5 mins followed by substrate addition by microplate reader analysis relative to control
Trypanothione reductase (Leishmania donovani), sequence (P39050 whole entry): as above

[3] = tested on: Leishmania donovani; assay: Antileishmanial activity against extracellular promastigote stage of Leishmania donovani after 96 hrs by luciferase reporter gene assay; assay type: functional, organism-based
[4] = tested on: Leishmania donovani; assay: Antileishmanial activity against amastigote stage of Leishmania donovani infected in mouse J774A.1 cells after 72 hrs by luciferase reporter gene assay; assay type: functional, organism-based; settings: J774.A1, 72 h
[5] = target: Trypanothione reductase (Leishmania donovani) (UniProt P39050); assay: Inhibition of recombinant Leishmania donovani trypanothione reductase expressed in Escherichia coli BL21 (DE3) using trypanothione disulphide as substrate at 100 uM preincubated for 5 mins followed by substrate addition by microplate reader analysis relative to control
[6] = Cytotoxicity against African green monkey Vero cells assessed as cell viability after 72 hrs by MTT assay; assay type: cell-based; settings: chlorocebus sabaeus
[7] = (§1) Selectivity index, ratio of CC50 for African green monkey Vero cells to IC50 for amastigote stage of Leishmania donovani infected in mouse J774A.1 cells; assay type: functional
[8] = tested on: Vero; assay: as §1; assay type: functional

Compound: CCCCCN1C(=O)c2ccccc2NC1c1nc(C(=O)OC)cc2c1[nH]c1ccccc12 (stereo unspecified)
- Ki [1]: 0.8 µM
- inhibition [2]: 90%
- IC50 [3]: 9.9 µM
- IC50 [4]: > 40 µM
- inhibition [5]: 99%

Compound: CCCN1C(=O)c2ccccc2NC1c1nc(C(=O)OC)cc2c1[nH]c1ccccc12 (stereo unspecified)
- inhibition [2]: 7%
- inhibition [5]: 9%

Compound: COC(=O)c1cc2c([nH]c3ccccc32)c(C2Nc3ccccc3C(=O)N2C2CCCC2)n1 (stereo unspecified)
- inhibition [2]: 20%
- inhibition [5]: 30%

Compound: COC(=O)c1cc2c([nH]c3ccccc32)c(C2Nc3ccccc3C(=O)N2Cc2ccc(Cl)c(Cl)c2)n1 (stereo unspecified)
- CC50 at 72 h [6]: 104 µM
- Ki [1]: 3.7 µM
- inhibition [2]: 77%
- IC50 [3]: 4.8 µM
- Ratio CC50/IC50 [7]: 24
- IC50 [4]: 4.3 µM
- inhibition [5]: 85%

Compound: COC(=O)c1cc2c([nH]c3ccccc32)c(C2Nc3ccccc3C(=O)N2Cc2ccccc2)n1 (stereo unspecified)
- inhibition [2]: 6%
- inhibition [5]: 11%

Compound: CCCCN1C(=O)c2ccccc2NC1c1nc(C(=O)OC)cc2c1[nH]c1ccccc12 (stereo unspecified)
- inhibition [2]: 28%
- inhibition [5]: 35%

Compound: COC(=O)c1cc2c([nH]c3ccccc32)c(C2Nc3ccccc3C(=O)N2Cc2ccc(OC)cc2)n1 (stereo unspecified)
- CC50 at 72 h [6]: 106 µM
- Ki [1]: 9.2 µM
- inhibition [2]: 56%
- IC50 [3]: 5.4 µM
- Ratio CC50/IC50 [7]: 3
- IC50 [4]: 35.2 µM
- inhibition [5]: 60%

Compound: COC(=O)c1cc2c([nH]c3ccccc32)c(C2Nc3ccccc3C(=O)N2c2ccccc2)n1 (stereo unspecified)
- inhibition [2]: 16%
- inhibition [5]: 18%

Compound: CCCCCCCCCCCCCCCCOP(=O)([O-])OCC[N+](C)(C)C [MILTEFOSINE]
- CC50 at 72 h [6]: 56.5 µM
- IC50 [3]: 1.2 µM
- Ratio CC50/IC50 [7]: 7
- IC50 [4]: 8.1 µM

Compound: COC(=O)c1cc2c([nH]c3ccccc32)c(C2Nc3ccccc3C(=O)N2c2ccc(Cl)cc2)n1 (stereo unspecified)
- CC50 at 72 h [6]: > 400 µM
- Ki [1]: 7.2 µM
- inhibition [2]: 64%
- IC50 [3]: 3.3 µM
- Ratio CC50/IC50 [7]: >91
- IC50 [4]: 4.4 µM
- inhibition [5]: 67%

Compound: sodium stibogluconate
- Ratio CC50/IC50 [8]: 7

Compound: COC(=O)c1cc2c([nH]c3ccccc32)c(C2Nc3ccccc3C(=O)N2C2CCCCCC2)n1 (stereo unspecified)
- inhibition [2]: inactive
- inhibition [5]: inactive

Compound: COC(=O)c1cc2c([nH]c3ccccc32)c(C2Nc3ccccc3C(=O)N2C2CCCCC2)n1 (stereo unspecified)
- inhibition [2]: inactive
- inhibition [5]: 1%

Compound: CCN1C(=O)c2ccccc2NC1c1nc(C(=O)OC)cc2c1[nH]c1ccccc12 (stereo unspecified)
- Ki [1]: 6.5 µM
- inhibition [2]: 58%
- IC50 [3]: 8.5 µM
- IC50 [4]: > 40 µM
- inhibition [5]: 75%

Compound: COC(=O)c1cc2c([nH]c3ccccc32)c(C2Nc3ccccc3C(=O)N2c2ccc(F)cc2)n1 (stereo unspecified)
- CC50 at 72 h [6]: 217 µM
- Ki [1]: 3.9 µM
- inhibition [2]: 81%
- IC50 [3]: 4.6 µM
- Ratio CC50/IC50 [7]: 36
- IC50 [4]: 6 µM
- inhibition [5]: 96%

Compound: COC(=O)c1cc2c([nH]c3ccccc32)c(C2Nc3ccccc3C(=O)N2c2ccc(OC)cc2)n1 (stereo unspecified)
- inhibition [2]: inactive
- inhibition [5]: inactive

Compound: COC(=O)c1cc2c([nH]c3ccccc32)c(C2Nc3ccccc3C(=O)N2C2CC2)n1 (stereo unspecified)
- inhibition [2]: inactive
- inhibition [5]: inactive
